# A melting point compilation (Tetko et al.; mined from patent text by program, amines drawn as free bases though some values may be those of a salt)
row,Structure (SMILES),melting point [°C]
1,CN(C)C=Cc1nc2ccc(F)cc2c(=O)n1-c1ccccc1Cl,210 to 211
2,CN(CC1CCN(CC2COc3ccccc3O2)CC1)c1nc2ccccc2s1 (stereo not given),125
3,NC(=O)c1cccc(NS(=O)(=O)c2ccc([N+](=O)[O-])cc2)c1,240 to 244
4,N#CC(NC(=O)c1cccn2ccnc12)c1ccco1 (stereo not given),149 to 151
5,CCCCc1nc2c(N)nc3cccnc3c2n1CCCCN,212 to 213
6,COC(=O)c1cc2nc(C)n(C)c2cc1C(=O)OC,147 to 148
7,CCC#COc1ccc(S(=O)(=O)NC(CSC)C(=O)NO)cc1 (stereo not given),128 to 130
8,CC(C)(C)C(=O)Oc1ccc(NCC2CCc3ccccc3C2)cc1 (stereo not given),75 to 77
9,COC(=O)c1ccccc1CN1CCN(c2nc(C)c(C(=O)NCc3ccccc3)s2)C1=O,130 to 133
10,CC(=O)n1ncc2cc(C)c([N+](=O)[O-])cc21,180 to 182
11,CCCCCCCCCCCCCCCCCCOc1cc(OCCCBr)cc(C(=O)OCc2ccccc2)c1,57 to 58
12,Cc1ccc(S(=O)(=O)N2CCC[C@H]2C(=O)N[C@@H](Cc2ccc(OCCN3CCOCC3)cc2)C(=O)O)cc1,99 to 101
13,CCC(=O)NCCC1CCc2c(F)cc3nn(C)cc3c21 (stereo not given),117 to 119
14,C#CCc1c(C)nc2c(OCc3c(C)cccc3NC(=O)C(C)O)cccn12 (stereo not given),186 to 188
15,C#CCNC(=C[N+](=O)[O-])NCCSCc1csc(NC(=N)N)n1,82 to 90
16,O=C(NCCO)Nc1ccccc1,120 to 122
17,N#Cc1ccc(NC(=CNCC(=O)O)[N+](=O)[O-])cc1,230
18,CNC(=O)Cc1cc(=O)oc2cc(OCc3cccc(Cl)c3)ccc12,174 to 175
19,COc1ccc2c(n1)C1(CO2)C(=O)N(Cc2csc(C(C)C)n2)c2ccccc21 (stereo not given),136 to 138
20,Cc1c(S(=O)(=O)c2ccc(=O)[nH]n2)oc2ccccc12,182 to 183
21,N#Cc1cc(F)c(-c2ncnc(C(F)F)c2Cl)cc1[N+](=O)[O-],100 to 102
22,Cc1oc(-c2ccccc2)nc1CCOc1ccc(CC(F)(C(=O)NS(C)(=O)=O)c2ccccc2)cc1 (stereo not given),118 to 120
23,Nc1cc2c3c(cccc3c1Cl)C(=O)N(O)C2=O,271 to 275
24,CC(C)C(O)(C#Cc1cccs1)c1cncnc1 (stereo not given),113 to 114
25,O=C(NO)c1ccc(CNC(=O)c2[nH]c(-c3ccccc3)cc2-c2ccc(Br)cc2)cc1,174 to 176

row,Structure (SMILES),melting point [°C]
1,CCCCOc1ccc(NC(=O)c2ccccc2C(c2ccc(O)cc2)c2ccc(O)cc2)cc1,110 to 112
2,CCOC(=O)c1cn(NC=O)c2cc(-n3cccc3)c(F)cc2c1=O,254 to 257
3,CCS(=O)(=O)Nc1cccc(C=C2c3ccccc3CCc3ccccc32)c1,180
4,COc1ccc(Cl)cc1C(=O)NCCC1CCN(S(=O)(=O)NC(=S)NC2CCCCC2)CC1,146 to 148
5,O=C(/C=C/c1ccccc1)Nc1cccc(F)c1,110
6,COC1=C(OC)C(=O)C(CCCCCCCCCCCCCCCCCCCCCCO)=C(C)C1=O,89 to 90.5
7,Cc1cc(C#N)cc(C(=O)Nc2ccc(F)c(C)c2)n1,177
8,O=[N+]([O-])c1cc(Cl)c(Cl)cc1O,63 to 65
9,COc1c(C)c(C)c(OC)c(CCCCO)c1C,85.1 to 87.1
10,C=CCC12CC(=O)N(C)C1(O)CCc1ccc(OC)cc12 (stereo not given),146 to 149
11,Cn1cc(C(F)(F)F)c(CS(=O)(=O)C2=NOC(C)(C)C2)n1,125 to 126
12,O=C1c2ccccc2C(=O)c2c1cc(CBr)c1c2CCC1,225 to 230
13,O=C(Cl)c1ccc(OC(=O)c2cccc(C(=O)Oc3ccc(C(=O)Cl)cc3)c2)cc1,204
14,COC1=NC2OC(C(O)c3ccc(Cl)cc3Cl)=C(N)C2C=C1 (stereo not given),259 to 260
15,COC(=O)c1ccccc1-n1c(CCl)nc2ccc(Br)cc2c1=O,235 to 237
16,C(=C\c1nc(COc2ccc(CCCCn3cnc4ccccc43)cc2)co1)/c1ccccc1,148 to 149
17,COc1ccccc1N1CCN(C(=O)Nc2nc3ccccc3nc2OC)CC1,177 to 178
18,Cn1nc(-c2cnc(N)nc2-c2cccc(F)c2)ccc1=O,212
19,O=C(Oc1ccc(OC(=O)c2cc(O)c(O)c(O)c2)c(-c2ccccc2)c1)c1cc(O)c(O)c(O)c1,114 to 116
20,COc1ccccc1Oc1cccc2c1OC(=O)C2,171 to 172
21,Cc1ccc(-c2ccc(C)c(CN3CCN(C(c4ccccc4)c4ccccc4)CC3)c2)cc1,177
22,COCCn1nnnc1-c1cc(-c2cc(C(F)(F)F)ccc2F)c(O)cc1O,90 to 94
23,CN(C)C(=O)Nc1nsnc1-c1c(Cl)cccc1Cl,100 to 103
24,NC(=O)c1ccc(C(=O)C=C(c2cc(Cl)cc(Cl)c2)C(F)(F)F)cc1,156 to 160
25,CC(Cc1ccncc1)(NC(=O)OC1C2CC3CC(C2)CC1C3)C(=O)NCCc1ccccc1 (stereo not given),176

row,Structure (SMILES),melting point [°C]
1,CN(c1cccc2cc(C3=NCC(CCNc4nnc[nH]4)S3)[nH]c12)S(=O)(=O)c1cccs1 (stereo not given),195
2,O=c1cc(C(F)(F)F)nc(Nc2cc(C(F)(F)F)ccc2C(F)(F)F)n1C1CCCCC1,154 to 156
3,NCc1cccc(OCCC(=O)O)c1,134 to 138
4,CC(=O)Nc1c(C)c(C)c2c(c1C)CC(C)(CN1CCC(c3ccccc3)CC1)O2 (stereo not given),94 to 96
5,c1cnc(NCc2ccc(-c3n[nH]c4c3Cc3ccccc3-4)s2)nc1,232 to 233
6,CCN(CC)c1ccc(S(=O)(=O)N2CCCC2=S)cc1,183 to 184
7,CCOC(=O)c1c(Cl)c2cc(Oc3ccc(C(F)(F)F)cc3)ccc2n1-c1ccc(OC(C)C)cc1,136 to 138
8,Cc1c(CO)c(Cl)nc2ccccc12,> 260
9,CC(CC1OCCc2ccccc21)NCC(O)c1ccc(O)cc1 (stereo not given),83 to 105
10,CC(=O)C(=Cc1cccc([N+](=O)[O-])c1)C(=O)OC(C)C(C)(C)NCCC(c1ccccc1)c1ccccc1 (stereo not given),65 to 80
11,CCC(C)Nc1c([N+](=O)[O-])cc(C)c(Cl)c1[N+](=O)[O-] (stereo not given),40 to 46
12,CC(C)n1cnc2c(NCc3ccncc3)nc(F)nc21,170 to 173
13,CC(=O)C(=Cc1c(-c2ccccc2)nc2sc(C)nn12)C(=O)N(C)C,185 to 187
14,COc1cc(C=CC(=O)Nc2cnc3c(C)cc(C)cc3c2-c2ccc(F)cc2)cc(OC)c1OC(C)=O,260 to 261
15,O=c1[nH]c2cscc2c(=O)n1CCN1CCN(c2cccc(Cl)c2)CC1,207 to 208
16,Cc1cc(C2=CCN=C(CCCC(O)c3ccc(F)cc3)C2)on1 (stereo not given),116 to 119
17,CNC(=O)C(C(F)F)C(C)(C)C=NO (stereo not given),53 to 58
18,O=[N+]([O-])c1nc(NCCO)ccc1NCCO,158
19,COc1cc(/C=C/C(=O)O)cc(OC)c1OCc1ccccc1,102
20,CC(=O)SCC(C(=O)N1CCC(=C2c3ccc(Cl)cc3CCc3cccnc32)CC1)c1ccccc1 (stereo not given),92.7 to 93
21,CCOC(=O)C1CCN(c2cc(C)nc3c2c(C)cn3-c2c(C)cc(Cl)cc2C)CC1,140 to 142
22,CCCC[C@H](NC(=O)C(CSC(C)=O)C(F)(F)F)C(=O)O (stereo not given in full),123 to 125
23,Cc1sc(N2CCN(C(=O)OC(C)(C)C)CC2)nc1/C=C/c1cn(-c2ccccc2)nc1O,221 to 223
24,COC(=O)C(=O)c1ccc(OCC#Cc2ccccc2)cc1,57 to 59
25,C=CCN(CC=C)c1nc(Cl)nc2c(SC)ncnc12,83 to 84

row,Structure (SMILES),melting point [°C]
1,Cc1nnc(NCCCOc2cccc(CN3CCCCC3)c2)n1C,143 to 144
2,CC(C)OC(=O)C(C(=O)O)=C1SCS1,123 to 124
3,CCCc1[nH]c2cc(C(N)=O)ccc2c1C(=O)COC,165 to 167
4,Cc1ccc2nc(SCc3ccccn3)n(-c3ccccc3)c(=O)c2c1,167 to 169
5,CCCNc1ccc(NC(=O)c2ccc(NC(=O)c3ccc(NCCC)nc3)nc2)nc1,249 to 250
6,Clc1nccnc1Oc1ccc(Oc2ccccc2)cc1,53 to 55
7,CCOC(=O)c1cnccc1CCCOc1cccnc1Oc1cccc(Cl)c1,140 to 164
8,CN(c1ccc(O)cc1)S(=O)(=O)c1ccc(C(F)(F)F)cc1,145 to 146
9,CC(C)Oc1ccc(CCCOc2cc(CCC(=O)O)n(-c3ccccc3)n2)c(OCc2ccc(Cl)cc2Cl)c1,139 to 141
10,O=C1C(=CO)C(c2ccc(Cl)cc2Cl)c2c(Cl)cc(Cl)cc21 (stereo not given),189 to 191
11,CN(C)N=Nc1cc(-c2ccccc2)sc1C(=O)O,162 to 166
12,CN1[C@@H]2CC[C@H]1[C@H](CO)[C@H](c1ccc(Cl)c(Cl)c1)C2,81 to 86
13,O=C1NC(=S)C(=Cc2cc(O)c(O)c([N+](=O)[O-])c2)O1,245
14,CN(C)C(=O)C(Cc1ccccc1)NC(=O)Nc1n[nH]c(=S)s1 (stereo not given),196 to 197
15,Cc1nn(-c2ccccn2)c2[nH]c3ccccc3c(=S)c12,252 to 253
16,CCOC(=O)c1sc2[nH]c(=O)c(=O)[nH]c2c1CC,> 300
17,CN1C(=O)CCC2(C)c3ccc(-c4cccs4)cc3CCC12 (stereo not given),193 to 195
18,CCOC(=O)c1cnc(S(=O)Cc2ccccc2)n1-c1c(CC)cccc1CC (stereo not given),82 to 83
19,COC(=O)CCC#Cc1cc(F)cc([N+](=O)[O-])c1,111 to 112
20,CC(C)(O)CCCCc1ccc(CCc2ccc(O)c(O)c2)cc1,124 to 126
21,Cn1nc(C(F)(F)F)nc1NC(=O)CCCOc1cccc(CN2CCCCC2)c1,96 to 97
22,COc1ccc(CN2CCN(NC(=O)c3cc(Cl)c(N)cc3OC)CC2)cc1,154 to 156
23,CCOc1ccncc1NS(=O)(=O)c1nc2cc(C)nc(OC)n2n1,184 to 186
24,CCc1nc2c(cnn2CC)c(NC2CCOCC2)c1CNC(=O)c1cccc(C(=O)NCc2ccc(OC)c(Br)c2)c1,130 to 132
25,Clc1cccc2c(CCN3CCCCC3)c(-c3ccccc3)[nH]c12,178 to 179
